Key:
Opiate, Delta 1 = assay: Opiate Delta 1 receptor binding assay
[1] = Pharmacokinetic studies: blood plasma levels and pain relief over 12 hours after administration of oxymorphone; assay type: in vivo; settings: for Time at which blood plasma levels peak: after administration of oxymorphone
Experimental: In two separate studies, blood plasma levels and indications of pain relief were recorded over a 12 hour period after.
After this time, oxymorphone levels again drop and eventually fall to levels near the earlier plateau.
After the initial peak, however, a more or less steady decline in the 6-hydroxy oxymorphones plasma levels is observed.
The amount administered will be dependent upon normal criteria such as patient weight, intensity of pain, and other factors. Based on the pharmacokinetic studies, blood plasma levels around at least 0.2 ng/mL will provide some analgesia. The upper plasma level limit will be ultimately established by safety concerns. […] Subsequent doses may be required to maintain these blood levels.

[2] = target: Opiate, Kappa (Human Recombinant (Homo sapiens, UniProt P41145)); assay: Opiate Kappa receptor binding assay
Sequence of Opiate, Kappa (Human Recombinant (P41145 whole entry): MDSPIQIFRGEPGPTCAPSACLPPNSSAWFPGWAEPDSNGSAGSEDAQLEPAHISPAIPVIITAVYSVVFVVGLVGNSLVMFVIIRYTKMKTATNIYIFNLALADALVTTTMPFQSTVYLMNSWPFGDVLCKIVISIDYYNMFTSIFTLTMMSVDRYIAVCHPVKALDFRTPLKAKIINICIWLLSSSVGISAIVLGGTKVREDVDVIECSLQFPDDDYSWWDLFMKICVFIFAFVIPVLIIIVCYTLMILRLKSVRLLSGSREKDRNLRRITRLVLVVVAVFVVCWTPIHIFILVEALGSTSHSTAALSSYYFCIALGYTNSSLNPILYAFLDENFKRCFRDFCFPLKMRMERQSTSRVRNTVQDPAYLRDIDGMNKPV

[3] = target: Opiate, Mu (Human Recombinant) (Homo sapiens, UniProt P35372); assay: Opiate Mu receptor binding assay
Sequence of Opiate, Mu (Human Recombinant) (P35372 whole entry): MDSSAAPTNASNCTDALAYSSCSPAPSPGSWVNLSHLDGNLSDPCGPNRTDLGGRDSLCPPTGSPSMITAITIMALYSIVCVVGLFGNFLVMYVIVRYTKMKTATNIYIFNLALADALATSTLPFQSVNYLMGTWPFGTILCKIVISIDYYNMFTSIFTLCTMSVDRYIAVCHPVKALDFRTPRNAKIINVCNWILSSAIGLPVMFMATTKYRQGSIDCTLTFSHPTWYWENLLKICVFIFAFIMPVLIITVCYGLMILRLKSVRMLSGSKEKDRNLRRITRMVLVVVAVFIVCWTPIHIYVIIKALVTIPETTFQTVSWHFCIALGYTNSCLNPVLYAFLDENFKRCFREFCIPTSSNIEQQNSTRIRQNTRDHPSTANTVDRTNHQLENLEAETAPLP

[4] = target: Opiate, Delta 2 (Human Recombinant) (Homo sapiens, UniProt P41143); assay: Opiate Delta 2 receptor binding assay
Sequence of Opiate, Delta 2 (Human Recombinant) (P41143 whole entry): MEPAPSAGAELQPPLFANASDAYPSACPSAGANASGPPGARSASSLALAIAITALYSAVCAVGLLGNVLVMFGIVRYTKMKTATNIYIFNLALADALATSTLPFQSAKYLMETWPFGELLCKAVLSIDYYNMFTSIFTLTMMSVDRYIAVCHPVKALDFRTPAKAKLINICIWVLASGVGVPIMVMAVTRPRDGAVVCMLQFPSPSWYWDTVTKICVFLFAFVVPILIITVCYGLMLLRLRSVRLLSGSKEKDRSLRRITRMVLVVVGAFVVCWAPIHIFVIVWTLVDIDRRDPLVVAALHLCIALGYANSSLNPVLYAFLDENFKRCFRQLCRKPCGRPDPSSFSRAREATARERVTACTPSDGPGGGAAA

Structure (SMILES): CN1CC[C@]23c4c5ccc(O)c4O[C@H]2C(O)CC[C@@]3(O)[C@H]1C5 (some centres unmarked) [6-HYDROXY OXYMORPHONE, 6-hydroxy oxymorphone]
- Assay report, binding, Opiate Delta 1 (Opiate, Delta 1; 10 nm (1.0 E−8)): −4.12%
- Assay report, binding, Opiate Delta 1 (Opiate, Delta 1; 10 μm (1.0 E−5)): 90.48%
- Time at which blood plasma levels peak [1]: ≤ 2 h
- Blood plasma level that provides some analgesia ([1]; based on the pharmacokinetic studies): at least 0.2 ng/mL
- Assay report, binding, Opiate Kappa ([2]; 10 nm (1.0 E−8)): 2.45%
- Assay report, binding, Opiate Kappa ([2]; 10 μm (1.0 E−5)): 62.47%
- Assay report, binding, Opiate Mu ([3]; 10 nm (1.0 E−8)): 63.16%
- Assay report, binding, Opiate Mu ([3]; 10 μm (1.0 E−5)): 99.91%
- Assay report, binding, Opiate Delta 2 ([4]; 10 nm (1.0 E−8)): 7.19%
- Assay report, binding, Opiate Delta 2 ([4]; 10 μm (1.0 E−5)): 55.45%

Structure (SMILES): CN1CC[C@]23c4c5ccc(O)c4O[C@H]2C(=O)CC[C@@]3(O)[C@H]1C5 [OXYMORPHONE, oxymorphone]
- Assay report, binding, Opiate Delta 1 (Opiate, Delta 1; 10 nm (1.0 E−8)): −18.26%
- Assay report, binding, Opiate Delta 1 (Opiate, Delta 1; 10 μm (1.0 E−5)): 89.03%
- Time at which blood plasma levels peak [1]: ≤ 2 h
- Time at which the blood plasma level spikes again ([1]; from administration of oxymorphone): 4 to 6 h
